Experimental data from the supplement of paper PMC6045584.
± gives the standard deviation of the averaged measurements.

Tests used:
[1] = compound: T1, CN(C)C/C=C/C(=O)Nc1cc2c(Nc3ccc(F)c(Cl)c3)ncnc2cc1O[C@H]1CCOC1 [AFATINIB]; assay: surviving fraction relative to DMSO-only wells; higher = less growth inhibition; conditions: exposure time: 5 days
Method in brief: (§1)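 In 384-well plates, 250–500 log-phase tumour cells per well were given 24 hours before five days of continuous exposure to inhibitors at 0.5, 1, 5, 10, 50, 100, 500 and 1000 nM. Surviving fraction is luminescence from CellTiter-Glo, normalised to the median of wells containing DMSO alone. Reading took place after 10 minutes at room temperature.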

[2] = compound: Cn1cc(C2=Nc3cc(NC(=O)C(N)C4CCCCC4)cc4c3C2=CNNC4=O)cn1; assay: as above; conditions: exposure time: 5 days
Method in brief: as §1

[3] = compound: CC1(C)CC(=O)c2c(C(F)(F)F)nn(-c3ccc(C(N)=O)c(N[C@H]4CC[C@H](OC(=O)CN)CC4)c3)c2C1 [SNX-5422]; assay: area under dose-response curve of surviving fraction (unscaled, Aref=0) (surviving fraction x log10(nM)); higher = more resistant; conditions: exposure time: 5 days; dose range 0.5-1000 nM
Method in brief: (§2)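 Tumour cell lines in 384-well plates were exposed for five days to eight inhibitor concentrations from 0.5 to 1000 nM. Viability was read by CellTiter-Glo luminescence, normalised to DMSO-only wells, in three screens per line. Dose-response survival curves were fitted to surviving fractions by 3-parameter logistic regression in the drc R package. Area under the curve is the unscaled activity area (Aref = 0) over log10 dose.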

[4] = compound: CCCCCCCCCCCCCCCC(=O)Nc1ccn([C@@H]2O[C@H](CO)[C@@H](O)[C@@H]2C#N)c(=O)n1 [SAPACITABINE]; assay: as above; conditions: exposure time: 5 days; dose range 0.5-1000 nM
Method in brief: as §2

[5] = compound: Cn1cc(C2=Nc3cc(NC(=O)C(N)C4CCCCC4)cc4c3C2=CNNC4=O)cn1; assay: as above; conditions: exposure time: 5 days; dose range 0.5-1000 nM
Method in brief: as §2

[6] = compound: T1, AFATINIB; assay: as above; conditions: exposure time: 5 days; dose range 0.5-1000 nM
Method in brief: as §2

Row | Test System | surviving fraction ([1]; 0.5 nM) | surviving fraction ([1]; 1 nM) | surviving fraction ([1]; 5 nM) | surviving fraction ([1]; 10 nM) | surviving fraction ([1]; 50 nM) | surviving fraction ([1]; 100 nM) | surviving fraction ([1]; 500 nM) | surviving fraction ([1]; 1000 nM) | surviving fraction ([2]; 0.5 nM) | surviving fraction ([2]; 1 nM) | surviving fraction ([2]; 5 nM) | surviving fraction ([2]; 10 nM) | surviving fraction ([2]; 50 nM) | surviving fraction ([2]; 100 nM) | surviving fraction ([2]; 500 nM) | surviving fraction ([2]; 1000 nM) | area under dose-response curve [3] | area under dose-response curve [4] | area under dose-response curve [5] | area under dose-response curve [6]
1 | HCC70 BREAST | 1.02 ± 0.064 | 0.981 ± 0.067 | 1 ± 0.015 | 0.965 ± 0.092 | 0.967 ± 0.022 | 1.02 ± 0.093 | 0.962 ± 0.016 | 0.827 ± 0.1 | 1.04 ± 0.035 | 1.19 ± 0.054 | 1.13 ± 0.046 | 1.09 ± 0.063 | 0.758 ± 0.028 | 0.313 ± 0.076 | 0.0723 ± 0.014 | 0.042 ± 0.0052 | 2.19 | 2.57 | 2.23 | 
2 | H23 LUNG | 0.887 ± 0.035 | 0.817 ± 0.048 | 0.507 ± 0.024 | 0.42 ± 0.015 | 0.387 ± 0.018 | 0.368 ± 0.029 | 0.355 ± 0.021 | 0.288 ± 0.002 | 1.05 ± 0.052 | 1.07 ± 0.092 | 1.09 ± 0.046 | 1.074 ± 0.0038 | 1.11 ± 0.1 | 1.1 ± 0.096 | 1.02 ± 0.084 | 0.944 ± 0.031 | 2.03 | 2.6 |  | 1.57
3 | SUM149.B1*.S BREAST | 1.11 ± 0.014 | 1.11 ± 0.061 | 1.05 ± 0.02 | 1.05 ± 0.037 | 0.966 ± 0.03 | 0.972 ± 0.045 | 0.916 ± 0.022 | 0.798 ± 0.044 | 1.045 ± 0.0088 | 1.1 ± 0.025 | 1.01 ± 0.057 | 1.04 ± 0.033 | 1.03 ± 0.062 | 0.954 ± 0.03 | 0.377 ± 0.0042 | 0.225 ± 0.024 | 2.31 | 1.89 | 3.05 | 
4 | DU4475 BREAST | 1.05 ± 0.26 | 1.08 ± 0.31 | 0.851 ± 0.034 | 1.11 ± 0.25 | 1.17 ± 0.15 | 0.997 ± 0.089 | 1.08 ± 0.25 | 0.788 ± 0.042 | 0.979 ± 0.32 | 0.981 ± 0.17 | 1.03 ± 0.2 | 0.96 ± 0.19 | 0.821 ± 0.25 | 0.659 ± 0.19 | 0.136 ± 0.026 | 0.0377 ± 0.0084 | 1.76 | 1.86 | 2.46 | 
5 | HCC202 BREAST | 1.12 ± 0.36 | 0.943 ± 0.36 | 0.561 ± 0.2 | 0.442 ± 0.098 | 0.253 ± 0.07 | 0.191 ± 0.048 | 0.0983 ± 0.031 | 0.0747 ± 0.0055 | 0.89 ± 0.18 | 0.775 ± 0.22 | 0.967 ± 0.15 | 0.838 ± 0.22 | 0.66 ± 0.27 | 0.505 ± 0.18 | 0.274 ± 0.049 | 0.341 ± 0.054 | 2.33 |  | 2.24 | 1.39
6 | HS578T BREAST | 1.01 ± 0.096 | 0.937 ± 0.017 | 1.08 ± 0.13 | 1.12 ± 0.039 | 1.17 ± 0.13 | 1.02 ± 0.052 | 0.662 ± 0.054 | 0.243 ± 0.048 | 0.986 ± 0.027 | 1.06 ± 0.057 | 0.946 ± 0.14 | 0.927 ± 0.037 | 0.788 ± 0.051 | 0.485 ± 0.049 | 0.162 ± 0.0082 | 0.174 ± 0.021 | 2.21 | 2.8 | 2.39 | 
7 | A549 LUNG | 1.02 ± 0.068 | 1.02 ± 0.053 | 0.987 ± 0.05 | 0.965 ± 0.056 | 1.03 ± 0.025 | 1.03 ± 0.019 | 1.04 ± 0.05 | 1.03 ± 0.034 | 1.04 ± 0.034 | 1.08 ± 0.082 | 1.03 ± 0.021 | 1.03 ± 0.018 | 1.08 ± 0.048 | 1.02 ± 0.033 | 1.06 ± 0.029 | 1.01 ± 0.02 | 2.28 | 2.57 |  | 3.35
8 | 143B BONE | 1.0165 ± 0.00071 | 1.05 ± 0.011 | 1.0335 ± 0.00071 | 1.02 ± 0.014 | 1.01 ± 0.023 | 1.02 ± 0.02 | 1 ± 0.028 | 0.871 ± 0.11 | 0.981 ± 0.052 | 1.01 ± 0.029 | 0.992 ± 0.033 | 1.0045 ± 0.00071 | 0.96 ± 0.052 | 1 ± 0.035 | 0.303 ± 0.0042 | 0.036 ± 0.0014 | 2.02 |  | 2.8 | 3.29
